# Results from ChEMBL document CHEMBL1221401, “Antiproliferative compounds from Pongamiopsis pervilleana from the Madagascar Dry Forest” (J Nat Prod, 2010).
# pIC50: −log10 of the molar value.
# Experiments:
# Type in all cases: functional, cell-based
# A2780 = assay: Antiproliferative activity against human A2780 cells after 96 hrs by CellTiter-Glo luminescent cell viability assay; details: A2780, 96 h
# BT-549 = assay: Antiproliferative activity against human BT549 cells after 96 hrs by CellTiter-Glo luminescent cell viability assay; details: BT-549, 96 h
# DU-145 = assay: Antiproliferative activity against human DU145 cells after 96 hrs by CellTiter-Glo luminescent cell viability assay; details: DU-145, 96 h
# NCI-H460 = assay: Antiproliferative activity against human NCI-H460 cells after 96 hrs by CellTiter-Glo luminescent cell viability assay; details: NCI-H460, 96 h
# HCC 2998 = assay: Antiproliferative activity against human HCC2998 cells after 96 hrs by CellTiter-Glo luminescent cell viability assay; details: HCC 2998, 96 h
SMILES,pIC50 (A2780),pIC50 (BT-549),pIC50 (DU-145),pIC50 (NCI-H460),pIC50 (HCC 2998)
COc1c(-c2ccc3c(c2)OCO3)c(=O)oc2c3c(ccc12)OC(C)(C)C=C3 [PONGAVILLEANINE],5.02,–,–,–,–
C=C(C)[C@H]1Cc2cc3c(cc2O1)OC[C@H]1c2cc4c(cc2O[C@@H]31)OCO4 [EMOROIDOCARPAN],4.58,–,–,–,–
C=C(C)[C@H]1Cc2c(ccc3c2O[C@@H]2COc4cc(OC)c(OC)cc4[C@]2(O)C3=O)O1 [ROTENOLONE],6.02,5.80,5.57,5.70,5.54
C=C(CO)[C@H]1Cc2cc3c(cc2O1)OC[C@H]1c2cc4c(cc2O[C@@H]31)OCO4,< 4.26,–,–,–,–
